According to patent publication US20220227815A1, “COMPOSITIONS AND METHODS USEFUL IN TREATING BRAIN DISEASES” (University of Kansas, priority 2019, published 2022):
Entries after “also recorded” stand apart in the source; their conditions may differ. Positions of bridges follow the written chain, without caps; N, C: chain ends. Non-standard residues stand in square brackets, D forms with d. Residues, ends and D or L forms follow the SMILES beside them. ξ: configuration not given here. Thr(3ξ) = CC(O)[C@H](N)C(=O)O

Legend:
[1] = test system: blood-brain barrier (BBB); assay: Brain delivery of IRdye800CW-IgG mAb in SJL/elite mice, whole brain NIRF imaging; type: in vivo; conditions: IgG mAb 26.8 nmol/kg i.v. alone (n=4) or with ADTC5 13 μmol/kg (n=5), 15 min
Procedure: Brain Delivery IRdye800CW-labeled IgG mAb using ADTC5 in SJL/elite Mice. For initial evaluation of whether ADTC5 can deliver proteins into the brain, IRdye800CW donkey-anti-goat IgG mAb was administered via i.v. with and without ADTC5 peptide in 5-8-week-old SJL/elite mice. Two groups of healthy SJL/elite mice were injected with (a) a mixture of IgG mAb (26.8 nmol/kg) and ADTC5 peptide (13 μmol/kg) (n=5) and (b) IgG mAb alone (26.8 nmol/kg) (n=4). After 15 min in the systemic circulation, the mice were euthanized using CO2 inhalation followed by brain perfusion using PBS to remove the remaining protein in the BBB microvasculature. Next, the brains were isolated followed by NIRF imaging using Licor Odyssey CLx (Licor, Lincoln, Nebr.). Eight optical sections were taken at 0.5 mm increments beginning from the bottom surface of the brain to a depth of 4 mm. The optical sections were summed to yield a fluorescence intensity value per each brain.

[2] = test system: blood-brain barrier (BBB); assay: In vivo brain delivery of IRdye800CW-fibronectin (220 kDa); design: species or system C57BL/6 mice
Procedure: (§1) The BBB modulatory activities of ADTC5 and HAV6 to enhance brain delivery of IRdyeR800CW-labeled lysozyme, albumin, IgG mAb, and fibronectin were compared in C57BL/6 mice. The proteins with or without 13 μmol/kg HAV6 or ADTC5 were administered via tail vein injection. For lysozyme, the delivered doses were 21.6 and 54 nmol/kg. For albumin, IgG mAb, and fibronectin, the dose used was 21.6 nmol/kg. Fifteen minutes after IgG mAb administration with or without a peptide of the present technology, the animals were sacrificed and PBS with 0.5% Tween-20 was administered for cardiac perfusion to remove the remaining protein in the BBB microvessels. The brain and other organs such as lung, heart, spleen, liver and kidney were harvested and rinsed with PBS. Protein depositions in the brain and other organs were quantified by NIRF imaging using an Odyssey CLx NIRF scanner.
(§2) A second quantification method was done using brain homogenates. In this case, the brains were homogenized in 2.0 mL PBS by mechanical disruption and 200 μL of homogenized brain (n=8) was aliquoted to a 96-well plate followed by quantification using the Odyssey CLx scanner. The signal intensity was compared to calibration curve and normalized to brain weight and homogenate volume.
(§3) Brain Perfusion. After euthanasia using CO2 chamber, mice were immediately subjected to cervical dislocation followed by removal of IRdye800CW-labeled protein from the brain capillaries using perfusion solution. In this case, a solution containing PBS with 0.2% Tween-20 was transcardially perfused to remove the remaining protein molecules in the brain endothelial microvessels. After perfusion, the brain was removed from the skull and subjected to capillary depletion.

[3] = test system: blood-brain barrier (BBB); assay: In vivo brain delivery of IRdye800CW-albumin (65 kDa); conditions: IRdye800CW-albumin 21.6 nmol/kg i.v. alone or with 13 μmol/kg peptide; C57BL/6 mice
Procedure: as §1, §2, §3

[4] = test system: blood-brain barrier (BBB); assay: In vivo brain delivery of IRdye800CW-lysozyme (15 kDa); design: species or system C57BL/6 mice
Procedure: Preparation of Stock and Standard Curves. The stock solution for IRDye800CW protein (i.e., lysozyme, 70 μg/mL) was prepared and stored at −80° C. The stock solution was later diluted with PBS to make the required standard solutions. To produce a standard calibration curve, 200 μL of blank brain homogenates was spiked with 10 μL standard solutions of various concentrations to yield a linear range from 0.5 to 50 ng/mL. The same method was employed for the sample's quality control (QC).
as §1, §2, §3

[5] = test system: blood-brain barrier (BBB); assay: In vivo brain delivery of IRdye800CW-IgG mAb, NIRF quantification in brain homogenates; conditions: C57BL/6 mice
Procedure: The activity of each peptide in enhancing blood-brain barrier (BBB) penetration was evaluated by delivering IRdye800CW donkey anti-goat IgG mAb in C57BL/6 mice; the amounts of mAb in the brain were determined using NIRF imaging. Each group contained 3 mice per group (n=3) with a mixture of male and female mice, selected randomly for each arm of the study. The injection solution was prepared by adding 600 μL PBS into 0.5 mg lyophilized IgG mAb; then, approximately 1.5 mg lyophilized peptide was added into the mixture yielding the injectable formulation. A 100 μL solution of a mixture containing IgG mAb (21.6 nmol/kg) along with 13 μmol/kg peptide of the present technology was administered via tail vein. As a control, 100 μL of IgG mAb alone was administered via i.v. route. After the delivered molecules had been circulating for 15 min, the mice were sacrificed; then, a mixture of PBS with 0.5% Tween20 was administered for cardiac perfusion to remove the blood and […] molecules into the brain microvessels. The brain and other organs such as lung, heart, spleen, liver, and kidney were harvested and rinsed with PBS. The isolated organs were scanned with Odyssey® CLx for mAb quantification.
The brain deposition of IgG mAb was also quantified by NIRF imaging in brain homogenates. The isolated brains were mechanically homogenized in 2.0 mL of PBS. To make the standard solutions, IRDye800CW IgG mAb stock solution (70 μg/mL) was prepared; it was then diluted with various amounts of PBS to make six different mAb concentrations. To generate a calibration curve, the brain homogenate (200 μL) was aliquoted out to a 96-well plate. 10 μL of each concentration of IgG mAb was added to three different wells of blank brain homogenates. The standard spiked homogenates were at a range of 10-200 ng/mL IgG mAb in brain homogenate. The wells were scanned using the Odyssey® CLx scanner, and the signal intensities vs. concentrations of mAb per gram of brain were used to generate a calibration curve.
as §1, §2

SJL/elite EAE mice = assay: Suppression of EAE relapse, clinical scores; type: in vivo; conditions: BDNF 5.71 nmol/kg and/or ADTC5 10 μmol/kg i.v.
Procedure: EAE Mouse Model: EAE disease in animals (5-8-week-old SJL/elite female mice, Charles River) was stimulated by injecting 200 μg of PLP139-151 peptide in a 0.2 mL emulsion containing equal volumes of PBS and complete Freund's adjuvant (CFA) with killed mycobacterium tuberculosis strain H37RA (Difco, Detroit, Mich.; final concentration 4 mg/mL) as described in Kobayashi, N.; Kiptoo, P.; Kobayashi, H.; Ridwan, R.; Brocke, S.; Siahaan, T. J. Prophylactic and therapeutic suppression of experimental autoimmune encephalomyelitis by a novel bifunctional peptide inhibitor. Clin Immunol 2008, 129, (1), 69-79 and Kobayashi, N.; Kobayashi, H.; Gu, L.; Malefyt, T.; Siahaan, T. J. Antigen-specific suppression of experimental autoimmune encephalomyelitis by a novel bifunctional peptide inhibitor. J Pharmacol Exp Ther 2007, 322, (2), 879-86. Briefly, […] of PLP/CFA emulsion was administered to four different regions above the shoulders and the flanks on Day 0 followed by intraperitoneal injection of 200 ng of pertussis toxin (List Biological Laboratories, Campbell, Calif.) on Days 0 and 2. Clinical scores that reflect the disease progression were determined using an 11-point scale with 0.5 increments ranging from 0 to 5; 0 being no apparent disease and 5 being moribund. On Day 21, mice were randomly separated into […]: (i) BDNF (5.7 nmol/kg)+ADTC5 (10 μmol/kg; n=7), (ii) BDNF alone (5.71 nmol/kg, n=6), (iii) ADTC5 alone (10 μmol/kg; n=5), and (iv) vehicle (n=5). All mice received 8 intravenous injections every 4 days beginning on Day 21. The mice were euthanized via CO2 inhalation on Day 55. Area under the curve (AUC) calculations were used to compare clinical scores across groups; AUC calculations were performed using the trapezoid rule from Days 21 to 55.

[6] = IgG mAb 21.6 nmol/kg + 13 μmol/kg peptide i.v.

SMILES: CC(=O)N[C@H]1CSSC[C@@H](C(N)=O)NC(=O)[C@H](C(C)C)NC(=O)[C@@H]2CCCN2C(=O)[C@@H]2CCCN2C(=O)[C@H](C(C)O)NC(=O)[C@H](CC(=O)O)NC1=O (some centres unmarked) [ADTC5, cyclo(1,7)acetyl-CDTPPVC-NH2] (Ac-CD[Thr(3ξ)]PPVC-NH2; disulfide 1-7)
- whole brain NIRF signal of IRDye800CW-IgG mAb [1]: significantly higher signal intensity
- NIRF signal of fibronectin in brain homogenates ([2]; IRdye800CW-fibronectin 21.6 nmol/kg i.v. alone or with ADTC5 13 μmol/kg): 35.498±3.001 ×10^3 A.U.
- brain delivery of 220 kDa fibronectin ([2]; fibronectin 21.6 nmol/kg with ADTC5 13 μmol/kg vs fibronectin alone): did not enhance
- amount of albumin in the brain [3]: 40.7±7.4 pmol/g brain
- amount of lysozyme in the brain ([4]; IRdye800CW-lysozyme 54 nmol/kg i.v. alone or with 13 μmol/kg peptide, C57BL/6 mice): 37.8±7.1 pmol/g brain
- brain delivery of lysozyme compared to lysozyme alone ([4]; lysozyme 21.6 nmol/kg with 13 μmol/kg peptide): no significant improvement
- average amount of IgG mAb in the brain ([5]; IRdye800CW-IgG mAb 21.6 nmol/kg i.v. alone or with 13 μmol/kg peptide, 15 min circulation, n=3): 13.3±0.7 pmol/g brain
- brain delivery of IgG mAb compared to control (IgG mAb alone) [5, 6]: significantly better than in the PBS control; also recorded: significant difference
- enhancement of mAb brain deposition relative to control [5, 6]: about three times that of control
- locomotion / paralysis observed (SJL/elite EAE mice; 8 injections): partial or full hind leg paralysis and full tail paralysis
- EAE clinical body scores (SJL/elite EAE mice; 8 injections every 4 days from day 21, compared with other groups/vehicle): no significant difference
